Here are results for two compounds from article PMC9142922, “Galactosylated Prodrugs: A Strategy to Improve the Profile of Nonsteroidal Anti-Inflammatory Drugs” (Pharmaceuticals, 2022).

A short description of series [1]: Solubility assay at 25 °C (RP-HPLC). In kind it is physicochemical. The conditions noted are these: thermodynamic from solid. As to the method: The solubilities of the prodrugs and parent drugs were evaluated at 25 °C in water, simulated gastric fluid (SGF without pepsin, pH 1.2) and PBS (pH 7.4), which are the media used for chemical stability analyses. The solubilities were quantified using RP-HPLC.
Solubility was assessed in deionized water, SGF without pepsin (pH 1.2) and PBS (pH 7.4, 50 mM). The test solid compounds (5 mg) were added to 1 mL of water, PBS and SGF in glass tubes and shaken for 6 h at 25 °C. The suspensions were filtered through a PTFE 0.45 μm filter (VWR), and the resulting solutions were analyzed by means of RP-HPLC (see below). Experiments were performed in triplicate for each compound. Solubility is expressed as mM concentration.

Series [2] is described as follows: Serum protein binding by ultrafiltration. In kind it is in vitro ADME. The conditions noted are these: male, human serum, 1 h at 37 °C, mean ± SD, read-out: Serum Protein Binding % Bound (converted). The procedure: The serum protein binding properties of the galactosylated prodrugs and parent drugs were investigated using ultrafiltration. The compounds were incubated in human serum, and after 1 h, the concentrations of the compounds in the ultrafiltrate and the original serum were determined by means of RP-HPLC, and used to calculate the binding percentages, which are reported in Table 2.
Free- and protein-bound drug separation was obtained via ultrafiltration using commercially available membrane systems (Centrifree ultrafiltration devices with ultracel YM-T membrane, Merck, KGaA, Darmstadt, Germany). […] One milliliter of the solution was inserted into the sample reservoir of the ultrafiltration device and gently shaken in an orbital shaker for 1 h at 37 °C. […] The concentration of the compound both in the ultrafiltrate and filtrate was analyzed via RP-HPLC under the chromatographic conditions described above and using the calibration curves of standard solutions. […] The recovery of the ultrafiltration process was calculated to observe any possible compound loss during the operations in view of the limited solubility of the tested compounds.

Setting [3] is: aqueous buffer, PBS pH 7.4 50 mM, 25 °C, read-out: Solubility at 25 °C, PBS pH 7.4.
Where [4] appears, read: simulated gastric fluid, SGF without pepsin pH 1.2, 25 °C, LOQ (HPLC) = 1 µM, read-out: Solubility at 25 °C, SGF pH 1.2.
[5] abbreviates: deionized water, 6 h shaking, 25 °C, mean, SD < 0.01, read-out: Solubility at 25 °C, Water.

The structures appear in SMILES notation. Values after ≈ are worked out from the molar mass of the structure shown. Where two headings read alike, the source gives them in different places.

As a reminder, the solubility is how much of the substance goes into solution per volume. Consider `CC(C(=O)OC[C@H]1OC(O)[C@H](O)[C@@H](O)[C@H]1O)c1ccc(-c2ccccc2)c(F)c1` (some centres unmarked) [FluGAL], for which the figures for the solubility at 6 h in series [1] (setting [3]), in series [1] (setting [4]) and in series [1] (setting [5]) were 1010 µM (≈ 410 µg/mL), 1440 µM (≈ 585 µg/mL) and 5210 µM (≈ 2120 µg/mL), respectively. The fraction unbound at 1 h, 100 µM in series [2] is 0.039.
`CC(C)Cc1ccc(C(C)C(=O)OC[C@H]2OC(O)[C@H](O)[C@@H](O)[C@H]2O)cc1` (some centres unmarked) [IbuGAL]: the solubility at 6 h is 2930 µM (≈ 1080 µg/mL) in series [1] (setting [3]), 2530 µM (≈ 932 µg/mL) in series [1] (setting [4]) and 1940 µM (≈ 715 µg/mL) in series [1] (setting [5]). The fraction unbound at 1 h, 100 µM in series [2] was 0.028.
